What is called melting point is the temperature, or range, at which the solid turns liquid.

Converted amounts (≈) assume the structure as drawn. Read-outs that look alike come from different tables or passages of the source. Some results are limits rather than exact numbers.

Data set [1] concerns Lemna paucicostata (L.) Hegelm. (duckweed). Conditions: commercial herbicides; Michel et al. 2004; read-out: IC50 in the same duckweed bioassay; cited from earlier work.
Data set [2] has as its system Edwardsiella ictaluri S02-1039. Description: rapid 96-well microplate antibacterial bioassay against E. ictaluri. Type of data set: cell-based. Conditions: E. ictaluri S02-1039; for MIC RDCF (relative-to-drug-control florfenicol): MIC divided by MIC of florfenicol; for IC50: S021039, 24 h. An excerpt:
An isolate of E. ictaluri (isolate S02-1039) was obtained from a person (formerly with the College of Veterinary Medicine, Mississippi State University, Stoneville, Miss.). In order to assure purity, cultures of E. ictaluri S02-1039 were maintained on 3.8% Mueller-Hinton (MH) agar plates (pH 7.3) (Becton, Dickinson and Company, Sparks, Md.). Prior to conducting the bioassay, colonies of E. ictaluri S02-1039 were used to prepare assay culture material by aseptically transferring bacterial cells from colonies to 45 mL of 3.8% MH broth to form a bacterial cell density of 0.5 McFarland standard.
(§1) The pure test compounds (−)-diplopyrone and (−)-diplopyrone acetate were dissolved in technical grade 100% methanol while (−)-diplopyrone nitrile was dissolved in technical grade 100% acetone. The three test compounds were evaluated for antibacterial activity against F. columnare ALM-00-173 and E. ictaluri S02-1039 using a rapid 96-well microplate bioassay and following previous procedures (Schrader and Harries 2006). Florfenicol was included as a positive drug control. Control wells (no test material added) were also included in each assay. Final test concentrations of compounds and florfenicol were 0.01, 0.1, 1.0, 10.0, 100.0, and 1000.0 μM. Three replications were used for each dilution of each test compound and drug control, and final results were converted to units of mg/L to allow comparison with previous studies.
(§2) The 24-h 50% inhibition concentration (IC50) and minimum inhibitory concentration (MIC) were determined using sterile 96-well (flat bottom) polystyrene microplates (Corning Costar Corp., Acton, Mass.) for (−)-diplopyrone and (−)-diplopyrone acetate. In order to prevent solvent interaction with polystyrene, sterile 96-well (flat bottom) quartz microplates (Hellma Cells, Inc., Forest Hills, N.Y.) were used for (−)-diplopyrone nitrile. Initially, dissolved test compounds or florfenicol were micropippeted separately into individual microplate wells (10 μL/well), and the solvent was allowed to completely evaporate before 0.5 MacFarland bacterial culture was added to the microplate wells (200 μL/well). Microplates were incubated at 29±1° C. (VWR model 2005 incubator; Sheldon Manufacturing, Inc., Cornelius, Oreg.). A microplate photometer (SpectraCount, Packard Instrument Company, Meriden, Conn.) was used to measure the absorbance (630 nm) of the microplate wells at time 0 and 24-h. Two replicates of each microplate bioassay were made. Cell viability of F. columnare ALM-00-173 and E. ictaluri S02-1039 was determined at the completion of the growth bioassay for each test compound using the yellow dye 3(4,5-dimethylthiazol-2-yl)-2,5-diphenyl tetrazolium bromide (MTT) and previously outlined procedures (Schrader and Harries 2006). In addition, the minimum bactericidal concentration (MBC) was determined for very active compounds (Schrader and Harries 2006).
(§3) The means and standard errors of absorbance measurements were calculated, graphed, and compared to controls to determine the MIC, 24-h IC50, and MTT 24-h IC50 for each test compound. The 24-h IC50 and MIC results for each test compound were divided by the respective 24-h IC50 and MIC results obtained for the positive control florfenicol to determine the relative-to-drug-control florfenicol (RDCF) values.

In data set [3] the test system is Lemna paucicostata (L.) Hegelm. (duckweed). Description: duckweed phytotoxicity bioassay (growth by frond area). Type of data set: in vivo. Conditions: for visual symptoms: 7 days of exposure, FIG. 7. The procedure:
Pyranopyran (2), pyranopyran acetate (3), and pyranopyran nitrile (4) were also evaluated for phytotoxic activity using the aquatic plant Lemna paucicostata (L.) Hegelm. (duckweed). Dose-response curves from the aquatic plant Lemna paucicostata (L.) Hegelm. (duckweed) were obtained from experiments conducted. Duckweed was grown and treated as described by Michel et al. (Michel, A., et al., Environ. Toxicol. Chem., 23: 1074-1079 (2004)) with slight modifications. Duckweed stocks were cultivated from single L. paucicostata colonies (an aggregate of one mother and two daughter fronds to assure genetic uniformity) in Hoagland's No. 2 basal salt mixture with added iron (1000× Fe-EDTA solution, pH 5.5) in sterile trays. The plants were grown in a growth chamber under the following controlled conditions: continuous light at 26° C. and 120 μmol·s^−1·m^−2 photosynthetically active radiation. Hoagland solution was changed every two days. Bioassays were conducted in sterile […] (Falcon, Corning Life Science). Each well contained 5 mL with 1% EtOH with or without test compounds. Test compounds were dissolved in EtOH. A graphic template of the six-well plates was used for LemnaTec (LemnaTec, Würselen, Germany) image analysis software. Treatment plates, with two three-frond plants of the approximately same size per well, were incubated during 7 days of treatment. Each treatment was replicated three times. IC50 values (concentration of test compound that inhibits growth 50%) were determined with R statistics software. Effects on growth are evaluated by measuring area of the plant fronds with image analysis.

For data set [4], the system named is Flavobacterium columnare ALM-00-173. Description: rapid 96-well microplate antibacterial bioassay against F. columnare. It is filed as cell-based. To be noted: F. columnare ALM-00-173; for IC50: ALM00173, 24 h.
From the text: An isolate of F. columnare [isolate ALM-00-173 (genomovar II)] was obtained from Dr. Covadonga Arias (School of Fisheries, Aquaculture and Aquatic Sciences, Auburn University, Auburn, Ala.). In order to assure purity, cultures of F. columnare ALM-00-173 were maintained separately on modified Shieh (MS) agar plates (pH 7.2-7.4) (Decostere, A., et al., Laboratory Animals, 36: 396-402 (2003)). Prior to conducting the bioassay, colonies of F. columnare ALM-00-173 were used to prepare the assay culture material by culturing in 75 mL of MS broth for 24 h at 29±1° C. at 150 rpm on a rotary shaker (model C24KC; New Brunswick Scientific, Edison, N.J.). After overnight incubation, a 0.5 McFarland standard of F. columnare ALM-00-173 culture material was prepared by transferring cells from the broth culture to fresh MS broth (Schrader, K. K., and M. D. Harries, Aquaculture Research, 37: 928-937 (2006)).
as §1, §2, §3

Data set [5] has as its system cork oak (Quercus suber) cuttings. To be noted: literature; cited from earlier work.

Regarding `CCC(CC)Nc1c([N+](=O)[O-])cc(C)c(C)c1[N+](=O)[O-]` [pendimethalin], in data set [1], the IC50 is 0.38 µM.

With `N#C[C@@H]1C=C[C@H]2OC(=O)C=C[C@H]2O1` [Pyranopyran nitrile (4), (4aR,6S,8aR)-6-Cyano-6,8a-dihydropyrano-[3,2-b]pyran-2(4aH)-one], the melting point fell in the range of 162 to 164 °C. Besides, the “MIC (minimum inhibitory concentration)” value in data set [2] (24 h, SE in parentheses) is reported as 0.002 (0) mg/L. Also, the “MIC RDCF (relative-to-drug-control florfenicol)” value in data set [2] is listed as 0.5 (0). The “MIC RDCF (relative-to-drug-control florfenicol)” value in data set [2] (listed as pyranopyran nitrile (4)) stood at 0.5±0. In data set [2] (Edwardsiella ictaluri, absorbance 630 nm, SE in parentheses, read-out: 24-h IC50 (50% inhibition concentration)), the IC50 was 7.7 ± 1.2 µg/mL (≈ 43.5 µM). In data set [2] (Edwardsiella ictaluri, tetrazolium bromide dye MTT, read-out: MTT 24-h IC50 (cell viability)), the IC50 was found to be 64.6 µg/mL (≈ 365 µM). Moreover, the MIC in data set [2] (Edwardsiella ictaluri, S021039, 24 h, SE in parentheses, read-out: MIC (minimum inhibitory concentration)) was determined as 0.002 µg/mL (≈ 0.0113 µM). For the same compound, the MBC in data set [2] (Edwardsiella ictaluri, S021039, bound is the highest test concentration, read-out: minimum bactericidal concentration (MBC)) was more than 177 µg/mL. In addition, in data set [3] (Lemna aequinoctialis, 144 h, Lemna paucicostata growth, frond area, FIG. 6, 6 days of exposure, read-out: IC50 (concentration that inhibits growth 50%)), the IC50 is less than 1 µM. Moreover, in data set [3] (at 33 μM and higher), the visual symptoms result is “some of the plants had no chlorophyll and were necrotic”. Also, the visual symptoms result in data set [3] (at 100 μM) is “many of the plants were devoid of chlorophyll and necrotic”. Besides, the “MIC (minimum inhibitory concentration)” value in data set [4] (24 h, SE in parentheses) was 17.7 (0) mg/L. In addition, the “MIC RDCF (relative-to-drug-control florfenicol)” value in data set [4] (MIC divided by MIC of florfenicol) is reported as 49.2 (0). Besides, the IC50 in data set [4] (Flavobacterium columnare, absorbance 630 nm, SE in parentheses, read-out: 24-h IC50 (50% inhibition concentration)) is 7.5 ± 0.5 µg/mL (≈ 42.3 µM). For the same compound, the IC50 in data set [4] (Flavobacterium columnare, tetrazolium bromide dye MTT, read-out: MTT 24-h IC50 (cell viability)) was found to be 16.8 ± 0.9 µg/mL (≈ 94.8 µM). Further, the MIC in data set [4] (Flavobacterium columnare, ALM00173, 24 h, SE in parentheses, read-out: MIC (minimum inhibitory concentration)) stood at 17.7 µg/mL (≈ 99.9 µM).

On to `C[C@H](O)[C@H]1C=C[C@@H]2OC(=O)C=C[C@@H]2O1` [Diplopyrone, 6-[(1S)-1-hydroxyethyl]-2,4a(S),6(R),8a(S)-tetrahydropyrano-[3,2-b]-pyran-2-one], for which the phytotoxic effect entry in data set [5] was “causes necrosis and wilting”.

As to `CC(C)c1ccc(NC(=O)N(C)C)cc1` [isoproturon], in data set [1], the IC50 is 0.35 µM.

Consider `CCc1cnc(C2=NC(C)(C(C)C)C(=O)N2)c(C(=O)O)c1` (centres unmarked) [imazethapyr], for which the IC50 in data set [1] was 0.93 µM.

The values are drawn from patent publication US11191273B2, “Methods of making pyranopyrans such as pyranopyran nitrile and methods of using pyranopyrans such as pyranopyran nitrile” (The United States of America, as Represented by the …, priority 2018, dated 2021).
